Values after ≈ are worked out from the molar mass of the structure shown.
Assays:
Type in all cases: cell-based
[1] = tested on: A.calcoaceticus IFO 13006; test: In vitro antibacterial activity (MIC), Japan Society of Chemotherapy Standard; conditions: Acinetobacter calcoaceticus, IFO13006; inoculated cells 10⁶ cells/ml
Procedure: (§1) The in vitro antibacterial activity (minimum inhibitory concentration, MIC, µg/ml) of the test compounds was determined according to Japan Society of Chemotherapy Standard [Chemotherapy, vol. 29, pp 76-79 (1981)].
(§2) Inoculated cells were 10⁶ cells/ml and the strain with * was incubated in a medium supplemented with 10% horse blood. The mark "1)" means quinolone resistant MRSA and "2)" means quinolone resistant bacteria.

[2] = tested on: Acinetobacter calcoaceticus ATCC 13006; test: as above; conditions: ATCC13006, inoculated cells 10⁶ cells/ml
Procedure: as §1, §2

[3] = tested on: Citrobacter freundii IFO 12681; test: as above; conditions: IFO12681, inoculated cells 10⁶ cells/ml
Procedure: as §1, §2

[4] = tested on: Corynebacterium diphtheriae Tronto; test: as above; conditions: inoculated cells 10⁶ cells/ml, medium supplemented with 10% horse blood
Procedure: as §1, §2

E. faecalis EFY-204 = test: as above; conditions: Enterococcus faecalis, EFY204; quinolone resistant bacteria; inoculated cells 10⁶ cells/ml
Procedure: as §1, §2

E. faecium EFMY-207 = test: as above; conditions: Enterococcus faecium, EFMY207; quinolone resistant bacteria; inoculated cells 10⁶ cells/ml
Procedure: as §1, §2

E. faecium EFMY-28 = test: as above; conditions: Enterococcus faecium, EFMY28; inoculated cells 10⁶ cells/ml
Procedure: as §1, §2

[5] = tested on: Enterobacter cloacae IFO 12937; test: as above; conditions: IFO12937, inoculated cells 10⁶ cells/ml
Procedure: as §1, §2

[6] = tested on: Enterococcus faecalis LS-101; test: as above; conditions: LS101, inoculated cells 10⁶ cells/ml
Procedure: as §1, §2

[7] = tested on: Escherichia coli NIHJ JC-2; test: as above; conditions: NIHJJC2, inoculated cells 10⁶ cells/ml
Procedure: as §1, §2

K.pneumoniae DT-S = test: as above; conditions: Klebsiella pneumoniae; inoculated cells 10⁶ cells/ml
Procedure: as §1, §2

Klebsiella pneumoniae DT = test: as above; conditions: inoculated cells 10⁶ cells/ml
Procedure: as §1, §2

L.monocytogenes VTU-206 = test: as above; conditions: Listeria monocytogenes, VTU206; inoculated cells 10⁶ cells/ml; medium supplemented with 10% horse blood
Procedure: as §1, §2

M.catarrhalis ATCC 25238 = test: as above; conditions: Moraxella catarrhalis, ATCC25238; inoculated cells 10⁶ cells/ml; medium supplemented with 10% horse blood
Procedure: as §1, §2

P. mirabilis IFO 3849 = test: as above; conditions: Proteus mirabilis, IFO3849; inoculated cells 10⁶ cells/ml
Procedure: as §1, §2

P.aeruginosa U-31 = test: as above; conditions: Pseudomonas aeruginosa, U31; inoculated cells 10⁶ cells/ml
Procedure: as §1, §2

[8] = tested on: Proteus vulgaris IFO 3988; test: as above; conditions: IFO3988, inoculated cells 10⁶ cells/ml
Procedure: as §1, §2

[9] = tested on: Pseudomonas aeruginosa IFO 12582; test: as above; conditions: IFO12582, inoculated cells 10⁶ cells/ml
Procedure: as §1, §2

S. aureus No.88 = test: as above; conditions: Staphylococcus aureus; quinolone resistant MRSA; inoculated cells 10⁶ cells/ml
Procedure: as §1, §2

[10] = tested on: S. epidermidis ATCC 12228; test: as above; conditions: Staphylococcus epidermidis, ATCC12228; inoculated cells 10⁶ cells/ml
Procedure: as §1, §2

S. epidermidis SEY-223 = test: as above; conditions: Staphylococcus epidermidis, SEY223; quinolone resistant bacteria; inoculated cells 10⁶ cells/ml
Procedure: as §1, §2

S. pneumoniae Type-III = test: as above; conditions: Streptococcus pneumoniae; inoculated cells 10⁶ cells/ml; medium supplemented with 10% horse blood
Procedure: as §1, §2

S. viridans America = test: as above; conditions: Streptococcus viridans; inoculated cells 10⁶ cells/ml; medium supplemented with 10% horse blood
Procedure: as §1, §2

[11] = tested on: Serratia marcescens IFO 12648; test: as above; conditions: IFO12648, inoculated cells 10⁶ cells/ml
Procedure: as §1, §2

Shigella flexneri EW-10 = test: as above; conditions: EW10, inoculated cells 10⁶ cells/ml
Procedure: as §1, §2

[12] = tested on: Staphylococcus aureus FDA 209P; test: as above; conditions: FDA209P, inoculated cells 10⁶ cells/ml
Procedure: as §1, §2

[13] = tested on: Streptococcus pyogenes C-203; test: as above; conditions: C203, inoculated cells 10⁶ cells/ml, medium supplemented with 10% horse blood
Procedure: as §1, §2

[14] = tested on: Chlamydia trachomatis D/UW-3Cx; test: Antibacterial effect against specific bacteria (MIC); conditions: same manner as Experimental Example 1
Procedure: as §1
(§3) In the same manner as in Experimental Example 1, the antibacterial effect against specific bacteria such as Chlamydia, Mycoplasma and acid-fast bacteria and anaerobic bacteria was determined.

[15] = tested on: Ureaplasma urealyticum ATCC 27618; test: as above; conditions: ATCC27618, same manner as Experimental Example 1
Procedure: as §1, §3

E. coli KC-14 = test: MIC of the infectious bacteria used for experimental infection; conditions: Escherichia coli, KC14; infectious strain of the mouse protection test
Procedure: as §1
(§4) Experimental infection was caused by intraperitoneal inoculation of respective bacteria to male mice. One hour after the inoculation, a test compound was orally administered to the mice. The therapeutic effect of each test compound was evaluated by reference to the 50% effective dose (ED₅₀) which was based on the survival ratio at 7 days after the administration according to the probit method [Proc. Soc. Exp. Med., Vol. 57, p 261-264 (1944)]. The minimum inhibitory concentration (MIC) of the infectious bacteria used was also determined. […]

S. aureus MRSA Y-238 = test: as above; conditions: Staphylococcus aureus, infectious strain of the mouse protection test
Procedure: as §1, §4

S. aureus Smith = test: as above; conditions: Staphylococcus aureus; infectious strain of the mouse protection test
Procedure: as §1, §4

CC1COc2c(N3CCN(C)CC3)c(F)cc3c(=O)c(C(=O)O)cn1c23 (centres unmarked) [Comp. Ex. 2, 9-fluoro-2,3-dihydro-3-methyl-10-(4-methyl-1-piperazinyl)-7-oxo-7H-pyrido [1. 2. 3-de) [1.4] benzoxazine-6-carboxylic acid, reference compound]
MIC [1]: 0.2 µg/mL (≈ 0.553 µM) | MIC [2]: 0.2 µg/mL (≈ 0.553 µM) | MIC [3]: 0.1 µg/mL (≈ 0.277 µM) | MIC [4]: 0.39 µg/mL (≈ 1.08 µM) | MIC (E. faecalis EFY-204): 50 µg/mL (≈ 138 µM) | MIC (E. faecium EFMY-207): 100 µg/mL (≈ 277 µM) | MIC (E. faecium EFMY-28): 3.13 µg/mL (≈ 8.66 µM) | MIC [5]: 0.39 µg/mL (≈ 1.08 µM) | MIC [6]: 0.39 µg/mL (≈ 1.08 µM) | MIC [7]: 0.05 µg/mL (≈ 0.138 µM) | MIC (K.pneumoniae DT-S): 0.05 µg/mL (≈ 0.138 µM) | MIC (Klebsiella pneumoniae DT): 0.1 µg/mL (≈ 0.277 µM) | MIC (L.monocytogenes VTU-206): 3.13 µg/mL (≈ 8.66 µM) | MIC (M.catarrhalis ATCC 25238): 0.1 µg/mL (≈ 0.277 µM) | MIC (P. mirabilis IFO 3849): 0.39 µg/mL (≈ 1.08 µM) | MIC (P.aeruginosa U-31): 1.56 µg/mL (≈ 4.32 µM) | MIC [8]: 0.1 µg/mL (≈ 0.277 µM) | MIC [9]: 1.56 µg/mL (≈ 4.32 µM) | MIC (S. aureus No.88): 50 µg/mL (≈ 138 µM) | MIC [10]: 0.2 µg/mL (≈ 0.553 µM) | MIC (S. epidermidis SEY-223): > 100 µg/mL | MIC (S. pneumoniae Type-III): 0.78 µg/mL (≈ 2.16 µM) | MIC (S. viridans America): 3.13 µg/mL (≈ 8.66 µM) | MIC [11]: 0.2 µg/mL (≈ 0.553 µM) | MIC (Shigella flexneri EW-10): 0.05 µg/mL (≈ 0.138 µM) | MIC [12]: 0.2 µg/mL (≈ 0.553 µM) | MIC [13]: 1.56 µg/mL (≈ 4.32 µM) | MIC [14]: 0.39 µg/mL (≈ 1.08 µM) | MIC [15]: 3.13 µg/mL (≈ 8.66 µM) | MIC (E. coli KC-14): 0.05 µg/mL | MIC (S. aureus MRSA Y-238): > 100 µg/mL | MIC (S. aureus Smith): 0.05 µg/mL

From patent EP0677522A1, “8-METHOXYQUINOLONECARBOXYLIC ACID DERIVATIVE” (priority 1992, dated 1994)
